Results on 15 compounds are retold here after patent publication US5480906A, “Stereochemical Wortmannin derivatives” (priority 1994, dated 1996).

The subject of the first data set is purified bovine brain PI 3-kinase. Nature of the data set: Assay of purified PI-3 kinase activity (32P incorporation into phosphatidylinositol, TLC/scintillation). The class given is biochemical. The conditions noted are these: at 10 ng/ml. Here is the method:
In another, preferred, method, PI 3-kinase was prepared from bovine brain. Two bovine brains (wet weight about 900 g) were obtained from a local slaughterhouse within minutes of slaughter, packed on ice, and homogenized within one hour. Brains were trimmed of excess fat and blood vessels and then homogenized using a Tekmar Tissuemizer (Cincinnati, Ohio) at 4° C. in 20 mM of Tris(pH 8.3) containing 250 mM of sucrose, 6 mM of β-mercaptoethanol, 1 μg/ml of leupeptin, 1 μg/ml of pepstatin A, 0.4 mM of PMSF, and 1 mM of MgCl2.
Following centrifugation for 60 minutes at 10,000 x g, the pH of the supernatant (about 1200 mL) was lowered to 5.75 using dropwise addition of 1M acetic acid at 4° C. After stirring for an additional 15 minutes at 4° C., the solution was centrifuged for 60 minutes at 13,500 x g. The supernatant was discarded. Pellets were resuspended in Buffer A (20 mM of Tris, pH 8.3, containing 6 mM of β-mercaptoethanol, 0.1 mM of ethylene glycol-bis(β-aminoethyl ether) N,N,N',N'-tetraacetic acid (EGTA), 1 μg/mL of leupeptin, 1 μg/mL of pepstatin A, and 1 mM of MgCl2), and loaded onto a Fast Flow Q Sepharose column (300 ml) at a flow rate of 5 mL/min at 4° C. After loading, the column was washed with 3 volumes of Buffer A containing 0.1M of KCl and the kinase was then eluted with a linear gradient of Buffer A/0.1M KCl to Buffer A/0.6M KCl at 3 mL/min over 7 volumes.
Fractions were assayed for PI 3-kinase activity using 10 μL of the fraction and phosphatidylinositol as substrate as described below. PI 4-kinase eluted in the breakthrough; PI 3-kinase eluted at approximately 0.3M of KCl. The PI 3-kinase pool was subjected to a 40% ammonium sulfate precipitation. Following centrifugation (60 minutes at 13,500 x g), pellets were resuspended in Buffer B (10 mM of potassium phosphate, pH 7.4, containing 6 mM of β-mercaptoethanol, 1 μg/mL of leupeptin, 1 μg/mL of pepstatin A, and 1 mM of MgCl2), and loaded onto a 50 mL hydroxylapatite column (Calbiochem, Inc., La Jolla, Calif.) at 2.5 mL/minute. The column was washed with 150 mL Buffer B until the A280 baseline reached zero, and the kinase was then eluted with a linear gradient of 10-320 mM of KH2 PO4 at 1 mL/minute over 450 minutes.
Active fractions were pooled and then loaded at 3 mL/minute onto a MonoS column (8 ml) (Pharmacia, Inc., Piscataway, N.J.) equilibrated in Buffer C (50 mM of MES, pH 6.2, containing 6 mM of β-mercaptoethanol, 0.1 mM of EGTA, 1 μg/mL of leupeptin, 1 μg/mL of pepstatin A, and 1 mM of MgCl2). PI 3-kinase was eluted with a linear gradient of 0-0.4M KCl in Buffer C over 120 minutes. In assaying fractions, two pools of PI 3-kinase activity were routinely found. The bulk of the activity was found in the flow-through, while about 20% of the activity was eluted in the gradient. Although the material in the gradient had considerable PI 4-kinase activity, essentially no PI 4-kinase activity was associated with the PI 3-kinase eluted in the flow-through. Therefore, the MonoS flow-through was concentrated by tangential flow filtration on a Mini-Ultrasette Omega 50 K membrane (Filtron, Inc., Northborough, Mass.) and diluted in Buffer C to lower the conductivity. The material was then reloaded onto the MonoS column using the above conditions. The PI 3-kinase bound to the column during the wash and was eluted in the gradient. Two pools of phosphatidylinositol kinase activity were obtained in the gradient; each was assayed for PI 3-kinase and PI 4-kinase activity.
Pool I from the MonoS column was diluted with Buffer A and chromatographed on MonoQ (1 ml) and eluted with a gradient of 0-0.4M KCl in Buffer A. The final pool was assayed for PI 3-kinase and PI 4-kinase activity.
PI 3-kinase activity was measured as previously described by Matter, W. F., et al., Biochemical and Biophysical Research Communications, 186: 624-631 (1992). […]
On to `COC[C@H]1OC(=O)c2coc3c2[C@@]1(C)C1=C(C3=O)[C@@H]2CCC(=O)[C@@]2(C)C[C@H]1O` [f, 11-desacetyl wortmannin], for which the “inhibition vs. PI-3-kinase” value came to 50%.

The data set is the same for the next values; noted with them: purified bovine brain PI 3-kinase, 10 min preincubation, 20 μM ATP, 3% DMSO.
On to `CCN(C=C1C(=O)O[C@H](COC)[C@@]2(C)C1=C(O)C(=O)C1=C2[C@H](O)C[C@]2(C)C(=O)CC[C@@H]12)CC` [b], for which the “IC50 for inhibition of PI-3-kinase” value was above 10 ng/mL.
As to `COC[C@H]1OC(=O)c2coc3c2[C@@]1(C)C1=C(C3=O)[C@@H]2CCC(=O)[C@@]2(C)CC1=O` [c, 11-dehydro Wortmannin], the “IC50 for inhibition of PI-3-kinase” value came to 1.6 ng/mL.
With `COC[C@H]1OC(=O)c2coc3c2[C@@]1(C)C1=C(C3=O)[C@@H]2CCC(O)[C@@]2(C)C[C@H]1O` (stereo partly shown) [d, 11,17-desacetyl-dihydro Wortmannin], the “IC50 for inhibition of PI-3-kinase” value was above 10 ng/mL.
As to `CCC(=O)O[C@@H]1C[C@]2(C)[C@@H](O)CC[C@H]2C2=C1[C@]1(C)c3c(coc3C2=O)C(=O)O[C@@H]1COC` [e, 11-propionyl-17-hydroxy-desacetyl-dihydro-Wortmannin], the “IC50 for inhibition of PI-3-kinase” value worked out at 0.38 ng/mL.
Take `COC[C@H]1OC(=O)c2coc3c2[C@@]1(C)C1=C(C3=O)[C@@H]2CCC(=O)[C@@]2(C)C[C@H]1O` [f, 11-desacetyl wortmannin]: the “IC50 for inhibition of PI-3-kinase” value was determined as 10 ng/mL.
Regarding `CCC(=O)O[C@@H]1C[C@]2(C)C(=O)CC[C@H]2C2=C1[C@]1(C)c3c(coc3C2=O)C(=O)O[C@@H]1COC` [g, 11-propionyl-desacetyl-Wortmannin], the “IC50 for inhibition of PI-3-kinase” value was 0.6 ng/mL.
Consider `CCCC(=O)O[C@@H]1C[C@]2(C)C(=O)CC[C@H]2C2=C1[C@]1(C)c3c(coc3C2=O)C(=O)O[C@@H]1COC` [h, 11-butyryl-desacetyl-Wortmannin], for which the “IC50 for inhibition of PI-3-kinase” value was 0.4 ng/mL.
Still for that read-out and setting: with `CCCCC(=O)O[C@@H]1C[C@]2(C)C(=O)CC[C@H]2C2=C1[C@]1(C)c3c(coc3C2=O)C(=O)O[C@@H]1COC` [i, 11-valeryl-desacetyl-Wortmannin] the figure was 1.2 ng/mL.
For the compound `COC[C@H]1OC(=O)c2coc3c2[C@@]1(C)C1=C(C3=O)[C@@H]2CCC(=O)[C@@]2(C)C[C@H]1OC(=O)CC(C)C` [iA, 11-isovaleryl-desacetyl-Wortmannin], the “IC50 for inhibition of PI-3-kinase” value was found to be 1.16 ng/mL.
In the case of `CCC(=O)O[C@@H]1C[C@]2(C)[C@@H](OC(C)=O)CC[C@H]2C2=C1[C@]1(C)c3c(coc3C2=O)C(=O)O[C@@H]1COC` [j, 11-propionyl-17-acetyl-desacetyl-dihydro-Wortmannin], the “IC50 for inhibition of PI-3-kinase” value amounted to 56.5 ng/mL.
Still for that read-out and setting: with `COC[C@H]1OC(=O)c2coc3c2[C@@]1(C)C1=C(C3=O)[C@@H]2CCC(=O)[C@@]2(C)C[C@H]1OC(=O)CCN(C)C` [k, 11-dimethylaminopropionyl-desacetyl-Wortmannin] the figure was 8.6 ng/mL.
As for `COC[C@H]1OC(=O)c2coc3c2[C@@]1(C)C1=C(C3=O)[C@@H]2CCC(=O)[C@@]2(C)C[C@H]1OC(=O)CCl` [l, 11-chloroacetyldesacetyl-Wortmannin], the “IC50 for inhibition of PI-3-kinase” value was determined as 1.3 ng/mL.
Consider `C=CC(=O)O[C@@H]1C[C@]2(C)C(=O)CC[C@H]2C2=C1[C@]1(C)c3c(coc3C2=O)C(=O)O[C@@H]1COC` [m, 11-acrylyl-desacetyl-wortmannin], for which the “IC50 for inhibition of PI-3-kinase” value was 0.95 ng/mL.
As for `COC[C@H]1OC(=O)c2coc3c2[C@@]1(C)C1=C(C3=O)[C@@H]2CCC(=O)[C@@]2(C)C[C@H]1OC(=O)Cc1ccccc1` [n, 11-phenylacetyl-desacetyl-Wortmannin], the “IC50 for inhibition of PI-3-kinase” value was determined as 1.53 ng/mL.

In a further data set the test system is laboratory animals.
Assay: not given
The conditions noted are these: even in low dosages, pure form; cited from earlier work.
Turning to `COC[C@H]1OC(=O)c2coc3c2[C@@]1(C)C1=C(C3=O)[C@@H]2CCC(=O)[C@@]2(C)C[C@H]1OC(C)=O` [wortmannin, Wortmannin], the “toxicity to living creatures (lethality)” value is listed as “often lethal”.
